The values that follow are results of earlier work, collected in US11839217B2, “Composition comprising a bioactive molecule” (EUCARYO BEHEER B.V., priority 2016, dated 2023).

Structures are written as SMILES.

For the molecule `C[C@@H]1C/C=C/C=C/C=C/C=C/[C@H](O[C@@H]2O[C@H](C)[C@@H](O)[C@H](N)[C@@H]2O)C[C@@H]2O[C@](O)(C[C@@H](O)C[C@H]3O[C@@H]3/C=C/C(=O)O1)C[C@H](O)[C@H]2C(=O)O` [natamycin], the solubility in ethanol (ethanol) was 40 to 1200 µg/mL. Also, the solubility in water (water) is 30 to 50 µg/mL.
